Test results taken from the NIST ThermoML archive (doi:10.1016/j.jct.2015.12.025).

What was measured:
[1] = xn = mol fraction of the nth substance listed; details: 102 kPa, Liquid, Vibrating tube method
[2] = refractive index (Na D-line) (dimensionless); xn = mol fraction of the nth substance listed; details: 102 kPa, Liquid, Standard Abbe refractometry

C[Si]1(CCC(F)(F)F)O[Si](C)(CCC(F)(F)F)O[Si](C)(CCC(F)(F)F)O1 (stereo not given) + O=[N+]([O-])c1ccccc1
Details	mass density, 308.15 K [kg/m3]	mass density, 313.15 K [kg/m3]	mass density, 318.15 K [kg/m3]	mass density, 323.15 K [kg/m3]	refractive index, 308.15 K	refractive index, 313.15 K	refractive index, 318.15 K	refractive index, 323.15 K
[1], x1 = 0.05	1199.58	1194.53	1189.25	1184.09	–	–	–	–
[1], x1 = 0.0999	1207.93	1202.66	1197.26	1191.9	–	–	–	–
[1], x1 = 0.1499	1214.25	1208.83	1203.23	1197.73	–	–	–	–
[1], x1 = 0.1919	1218.36	1212.79	1207.17	1201.58	–	–	–	–
[1], x1 = 0.2499	1222.85	1217.11	1211.37	1205.62	–	–	–	–
[1], x1 = 0.2999	1225.81	1220.01	1214.12	1208.26	–	–	–	–
[1], x1 = 0.3501	1228.12	1222.19	1216.28	1210.32	–	–	–	–
[1], x1 = 0.3999	1229.99	1224	1218.01	1211.97	–	–	–	–
[1], x1 = 0.4499	1231.5	1225.36	1219.29	1213.19	–	–	–	–
[1], x1 = 0.5008	1232.67	1226.56	1220.4	1214.21	–	–	–	–
[1], x1 = 0.55	1233.65	1227.39	1221.21	1215	–	–	–	–
[1], x1 = 0.6001	1234.37	1228.07	1221.84	1215.54	–	–	–	–
[1], x1 = 0.6501	1234.9	1228.58	1222.33	1216	–	–	–	–
[1], x1 = 0.6997	1235.32	1229.04	1222.69	1216.31	–	–	–	–
[1], x1 = 0.75	1235.76	1229.34	1222.98	1216.56	–	–	–	–
[1], x1 = 0.8002	1236.01	1229.55	1223.17	1216.72	–	–	–	–
[1], x1 = 0.8498	1236.19	1229.72	1223.28	1216.78	–	–	–	–
[1], x1 = 0.9002	1236.26	1229.82	1223.34	1216.83	–	–	–	–
[1], x1 = 0.9492	1236.47	1229.88	1223.44	1216.88	–	–	–	–
[1], x1 = 1	1236.63	1230.05	1223.55	1216.99	–	–	–	–
[2], x1 = 0.05	–	–	–	–	1.51601	1.51362	1.51123	1.50882
[2], x1 = 0.0999	–	–	–	–	1.49288	1.49054	1.48816	1.48586
[2], x1 = 0.1499	–	–	–	–	1.47398	1.47168	1.46935	1.46705
[2], x1 = 0.1919	–	–	–	–	1.46058	1.4583	1.45605	1.45377
[2], x1 = 0.2499	–	–	–	–	1.44494	1.4427	1.44048	1.43827
[2], x1 = 0.2999	–	–	–	–	1.43355	1.43137	1.42916	1.42695
[2], x1 = 0.3501	–	–	–	–	1.42369	1.42151	1.41931	1.41713
[2], x1 = 0.3999	–	–	–	–	1.41513	1.41296	1.41082	1.40865
[2], x1 = 0.4499	–	–	–	–	1.40755	1.4054	1.40325	1.40109
[2], x1 = 0.5008	–	–	–	–	1.4007	1.39858	1.39644	1.39433
[2], x1 = 0.55	–	–	–	–	1.39478	1.3927	1.39053	1.38845
[2], x1 = 0.6001	–	–	–	–	1.38938	1.38728	1.38519	1.3831
[2], x1 = 0.6501	–	–	–	–	1.38448	1.38239	1.38032	1.37824
[2], x1 = 0.6997	–	–	–	–	1.38006	1.378	1.37594	1.37384
[2], x1 = 0.75	–	–	–	–	1.376	1.37391	1.37188	1.36984
[2], x1 = 0.8002	–	–	–	–	1.37227	1.37021	1.36817	1.36612
[2], x1 = 0.8498	–	–	–	–	1.36887	1.36681	1.36478	1.36274
[2], x1 = 0.9002	–	–	–	–	1.36567	1.36365	1.36163	1.35959
[2], x1 = 0.9492	–	–	–	–	1.36284	1.36084	1.35878	1.35679
[2], x1 = 1	–	–	–	–	1.36011	1.35808	1.35609	1.35407

CC(C)(C)c1ccccc1 [(1,1-dimethylethyl)benzene] + C[Si]1(CCC(F)(F)F)O[Si](C)(CCC(F)(F)F)O[Si](C)(CCC(F)(F)F)O1
Details	mass density, 308.15 K [kg/m3]	mass density, 313.15 K [kg/m3]	mass density, 318.15 K [kg/m3]	mass density, 323.15 K [kg/m3]	refractive index, 308.15 K	refractive index, 313.15 K	refractive index, 318.15 K	refractive index, 323.15 K
[1], x2 = 0	854.12	849.98	845.87	841.72	–	–	–	–
[1], x2 = 0.0476	894.32	889.93	885.61	881.21	–	–	–	–
[1], x2 = 0.1	933.32	928.72	924.21	919.56	–	–	–	–
[1], x2 = 0.15	966.19	961.47	956.76	951.94	–	–	–	–
[1], x2 = 0.2	995.76	990.72	985.86	980.83	–	–	–	–
[1], x2 = 0.25	1022.23	1017.01	1012	1006.81	–	–	–	–
[1], x2 = 0.2999	1046.09	1040.82	1035.68	1030.38	–	–	–	–
[1], x2 = 0.3499	1067.85	1062.39	1057.13	1051.7	–	–	–	–
[1], x2 = 0.3999	1087.64	1082.11	1076.69	1071.16	–	–	–	–
[1], x2 = 0.45	1105.84	1100.2	1094.66	1089.02	–	–	–	–
[1], x2 = 0.5	1122.55	1116.79	1111.16	1105.4	–	–	–	–
[1], x2 = 0.5498	1137.88	1132.05	1126.36	1120.47	–	–	–	–
[1], x2 = 0.6	1152.22	1146.28	1140.41	1134.47	–	–	–	–
[1], x2 = 0.6499	1165.5	1159.37	1153.46	1147.45	–	–	–	–
[1], x2 = 0.7001	1177.76	1171.65	1165.58	1159.5	–	–	–	–
[1], x2 = 0.75	1189.19	1183.03	1176.83	1170.74	–	–	–	–
[1], x2 = 0.7995	1199.87	1193.61	1187.3	1181.13	–	–	–	–
[1], x2 = 0.8499	1209.99	1203.62	1197.27	1190.93	–	–	–	–
[1], x2 = 0.8954	1218.66	1212.17	1205.76	1199.34	–	–	–	–
[1], x2 = 0.9485	1228.1	1221.55	1215.06	1208.56	–	–	–	–
[2], x2 = 0	–	–	–	–	1.48509	1.48256	1.48007	1.47754
[2], x2 = 0.0476	–	–	–	–	1.47051	1.46805	1.4656	1.46312
[2], x2 = 0.1	–	–	–	–	1.45684	1.45441	1.452	1.4496
[2], x2 = 0.15	–	–	–	–	1.44555	1.44313	1.44079	1.4384
[2], x2 = 0.2	–	–	–	–	1.4356	1.43327	1.43091	1.42856
[2], x2 = 0.25	–	–	–	–	1.42681	1.4245	1.42218	1.41985
[2], x2 = 0.2999	–	–	–	–	1.41901	1.41671	1.41444	1.41212
[2], x2 = 0.3499	–	–	–	–	1.41199	1.40972	1.40747	1.40521
[2], x2 = 0.3999	–	–	–	–	1.40568	1.40344	1.4012	1.39899
[2], x2 = 0.45	–	–	–	–	1.39992	1.3977	1.39552	1.3933
[2], x2 = 0.5	–	–	–	–	1.39466	1.39251	1.39033	1.38813
[2], x2 = 0.5498	–	–	–	–	1.38992	1.38774	1.38566	1.3834
[2], x2 = 0.6	–	–	–	–	1.38555	1.38337	1.38127	1.37906
[2], x2 = 0.6499	–	–	–	–	1.38151	1.37934	1.37726	1.37512
[2], x2 = 0.7001	–	–	–	–	1.37773	1.37562	1.37352	1.37141
[2], x2 = 0.75	–	–	–	–	1.37427	1.3722	1.3701	1.36801
[2], x2 = 0.7995	–	–	–	–	1.37106	1.36902	1.36693	1.36485
[2], x2 = 0.8499	–	–	–	–	1.36804	1.36599	1.36394	1.36193
[2], x2 = 0.8954	–	–	–	–	1.36548	1.36342	1.36142	1.35939
[2], x2 = 0.9485	–	–	–	–	1.36268	1.36065	1.35863	1.35667
